{
  "source": "paper PMC7891606",
  "about": "(Clinical Pharmacology in Drug Development, 2020)",
  "key": {"[1]": {"conditions": "period 1, before opicapone"}, "[2]": {"conditions": "after metabolism by peripheral AADC and COMT; cited from earlier work"}, "clinical": {"experiment": "clinical", "conditions": "male, human, in vivo, po, 100 mg"}, "Safety and tolerability": {"experiment": "Safety and tolerability", "type": "in vivo, healthy Japanese adult males", "conditions": "for Tolerability: opicapone tablets 5 to 50 mg once daily for 11 days"}, "[3]": {"experiment": "Effect of opicapone on plasma L‐dopa and 3‐OMD exposure", "type": "in vivo, healthy Japanese adult males"}, "[4]": {"conditions": "previous pharmacokinetic study; cited from earlier work"}, "[5]": {"conditions": "opicapone 50 mg, period 2, N 20"}, "[6]": {"conditions": "opicapone 50 mg, period 3, N 19"}},
  "note": "Entries after “also recorded” stand apart in the source; their conditions may differ. Read-outs that look alike come from different tables or passages of the source.",
  "data": [
    {"smiles": "N[C@@H](Cc1ccc(O)c(O)c1)C(=O)O", "note": "[L‐dopa, levodopa]", "values": [
      {"measurement": "tmax in plasma (median (min-max))", "setting": "[1]; opicapone 5 mg cohort (A), first dose of L-dopa/carbidopa", "value": "0.50 (0.50‐2.00) h"},
      {"measurement": "tmax in plasma (median (min-max))", "setting": "[1]; opicapone 10 mg cohort (B), second dose of L-dopa/carbidopa", "value": "0.50 (0.50‐2.00) h"},
      {"measurement": "tmax in plasma (median (min-max))", "setting": "[1]; opicapone 50 mg cohort (D), first dose of L-dopa/carbidopa", "value": "0.50 (0.50‐2.00) h"},
      {"measurement": "Bioavailable dose in the brain", "setting": "[2]", "value": "approximately 1 % of the ingested dose"},
      {"measurement": "Cmax", "setting": "clinical", "value": "1950 ± 581", "unit": "ng/mL"},
      {"measurement": "Tmax", "setting": "clinical", "value": 30, "unit": "min"}
    ]},
    {"smiles": "Cc1c(Cl)c(C)[n+]([O-])c(Cl)c1-c1noc(-c2cc(O)c(O)c([N+](=O)[O-])c2)n1", "note": "[Opicapone, opicapone]", "values": [
      {"measurement": "Number (%) of Subjects Reporting Adverse Event: Diarrhea", "setting": "Safety and tolerability; opicapone 5 mg, period 3, N 20", "value": "1 (5.0) Number (%) of Subjects"},
      {"measurement": "Number (%) of Subjects Reporting Adverse Event: Nausea", "setting": "Safety and tolerability; opicapone 25 mg, period 3, N 20", "value": "3 (15.0) Number (%) of Subjects"},
      {"measurement": "Subjects who stopped treatment due to adverse event (infectious enteritis)", "setting": "Safety and tolerability; opicapone 50 mg cohort", "value": 1, "unit": "subject"},
      {"measurement": "Number (%) of Subjects Reporting Adverse Event: All", "setting": "Safety and tolerability; opicapone 50 mg, period 2 (opicapone once daily 11 days), N 20", "value": "2 (10.0) Number (%) of Subjects"},
      {"measurement": "Number (%) of Subjects Reporting Adverse Event: Enteritis, infectious", "setting": "Safety and tolerability; [5]", "value": "1 (5.0) Number (%) of Subjects"},
      {"measurement": "Number (%) of Subjects Reporting Adverse Event: Pharyngitis", "setting": "Safety and tolerability; [5]", "value": "1 (5.0) Number (%) of Subjects"},
      {"measurement": "Number (%) of Subjects Reporting Adverse Event: Nausea", "setting": "Safety and tolerability; [6]", "value": "5 (26.3) Number (%) of Subjects"},
      {"measurement": "Number (%) of Subjects Reporting Adverse Event: Vomiting", "setting": "Safety and tolerability; [6]", "value": "3 (15.8) Number (%) of Subjects"},
      {"measurement": "Tolerability", "setting": "Safety and tolerability", "value": "well tolerated; also recorded: well tolerated with no safety issues"},
      {"measurement": "Tolerability", "setting": "Safety and tolerability; listed as opicapone", "value": "well tolerated at all doses with no major safety issues"},
      {"measurement": "Causal relationship of adverse events to opicapone or L‐dopa/carbidopa", "setting": "Safety and tolerability; period 2", "value": "no adverse events reported in period 2 were thought to be related"},
      {"measurement": "Causal relationship of adverse events to opicapone or L‐dopa/carbidopa", "setting": "Safety and tolerability; period 3", "value": "at least possibly related"},
      {"measurement": "Change of Cmax and AUC of 3‐OMD following opicapone administration", "setting": "[3]; especially at the highest opicapone doses", "value": "decreased notably"},
      {"measurement": "Change of AUC of L‐dopa with increasing opicapone dose", "setting": "[3]; opicapone 5-50 mg, plateau at 25 mg and higher", "value": "increased with increasing opicapone dose; also recorded: tended to increase with increasing opicapone dose; also recorded: plateau in the increase in L‐dopa exposure"},
      {"measurement": "Increase of L‐dopa trough levels and extent of exposure compared with entacapone", "setting": "[4]", "value": "superior response to entacopone"}
    ]}
  ]
}
